Assay results published in patent US20070225242A1, “Method and composition for treating and preventing tumor metastasis in vivo” (The Board of Trustees of the Leland Stanford Junior …, priority 2005, published 2007).

Columns and labels:
Assay type in all cases: cell-based
MDA231 and SiHa cells = assay: In vitro invasion assay (Matrigel-coated inserts); conditions: various human cancer cells; 24 hr oxygen deprived
Description: The first step of the metastatic process is cell invasion. […] The invasion of various human cancer cells in vitro was examined. […] Because LOX is a copper-dependent enzyme that can act intracellularly or extracellularly, cells were treated with bathocuprione disulphonate (BCS), a copper chelator that cannot permeate the cell membrane.
Invasive behavior was examined in vitro as previously described. Briefly, cells were serum deprived for 24 h then 2.5×10^4 cells were seeded in triplicate on both Matrigel-coated and uncoated inserts, moved to chambers containing 750 μl of FBS as a chemo-attractant and incubated at in normoxic or oxygen deprived conditions for 24 hr. Treatments with beta-aminoproprionitrile or bathocuprione disulphonate (Sigma) were performed 24 h prior to serum deprivation, and continued throughout the experiment.

human cancer cells = assay: Cell viability; conditions: data not shown
FAK = FAK phosphorylation (phospho-FAK immunoblot); conditions: cells expressing LOX shRNA transfected with mature LOX
Text: Acquisition of motility is required before cells can migrate and invade. Invasive cell migration is a multi-step process^17 that commences with pseudopod protrusion at the leading edge driven by actin polymerization, resulting in focal adhesion formation and the activation of integrin and focal adhesion kinase (FAK). […] LOX protein expression extended along hairlike fibers protruding from the cell surface into the collagen matrix. […] Remodeling of the actin cytoskeleton with increased formation of stress fibers and focal adhesion in MDA231 control cells particularly in hypoxia was observed, which were not seen in cells expressing LOX shRNA.
A role for fibronectin (FN) was sought, because it was strongly associated with LOX expression in the breast cancer microarray data set that was analyzed (data not shown), is reported to regulate invasion, bind to integrins and interact with LOX, and is hypoxia induced. […] FAK phosphorylation could be induced in the cells expressing LOX shRNA by transfection with mature LOX (but not catalytically dead LOX), confirming a role for LOX in FAK phosphorylation. […]
Methods were performed as previously described. […] LOX was analyzed by using a rabbit polyclonal antibody raised against a synthetic peptide of human LOX (EDTSCDYGYHRRFA (SEQ ID NO:1); Open Biosystems). […] Quantification was performed with ImageQuant software.

Molecule	increased invasion under hypoxia or anoxia (MDA231 and SiHa cells)	cell viability (human cancer cells)	FAK phosphorylation induced by transfection with mature LOX (FAK)
Cc1cc(-c2ccc(S(=O)(=O)O)cc2)c2ccc3c(-c4ccc(S(=O)(=O)O)cc4)cc(C)nc3c2n1 [BCS, bathocuprione disulphonate]	prevented the enhanced invasion of hypoxic cells	Neither treatment with BAPN nor treatment with BCS affected cell viability	
catalase: catalase (Sigma), removes hydrogen peroxide, a by-product of LOX activity (protein, UniProt P00432 2-527, looked up) Catalase: ADNRDPASDQMKHWKEQRAAQKPDVLTTGGGNPVGDKLNSLTVGPRGPLLVQDVVFTDEMAHFDRERIPERVVHAKGAGAFGYFEVTHDITRYSKAKVFEHIGKRTPIAVRFSTVAGESGSADTVRDPRGFAVKFYTEDGNWDLVGNNTPIFFIRDALLFPSFIHSQKRNPQTHLKDPDMVWDFWSLRPESLHQVSFLFSDRGIPDGHRHMNGYGSHTFKLVNANGEAVYCKFHYKTDQGIKNLSVEDAARLAHEDPDYGLRDLFNAIATGNYPSWTLYIQVMTFSEAEIFPFNPFDLTKVWPHGDYPLIPVGKLVLNRNPVNYFAEVEQLAFDPSNMPPGIEPSPDKMLQGRLFAYPDTHRHRLGPNYLQIPVNCPYRARVANYQRDGPMCMMDNQGGAPNYYPNSFSAPEHQPSALEHRTHFSGDVQRFNSANDDNVTQVRTFYLKVLNEEQRKRLCENIAGHLKDAQLFIQKKAVKNFSDVHPEYGSRIQALLDKYNEEKPKNAVHTYVQHGSHLSAREKANL			could be prevented
